Measurements reported in US8633166B2, “Methicillin-resistant Staphylococcus aureus active metabolites” (priority 2009, dated 2014).
In brackets after ≈: the same amount, converted by molar mass.

Columns and labels:
[1] = tested on: Methicillin-resistant Staphylococcus aureus; assay: In vivo MRSA assay, thigh infection in a murine model; parameters: species or system Mice (CD-1); settings: vancomycin treated animals
Description: The in vivo antimicrobial activity for the isolated glycosides is represented in FIGS. 2A and 2B. Mice (CD-1) were purchased from Harlan Inc. and acclimatized up to 5 days before use. Food and water were available ad libitum throughout the study. They were rendered neutropenic by two injections of cyclophosphamide (100 mg/kg) given intraperitoneally, one and four days before infection. A volume of 50 uL suspension of Methicillin-resistant Staphylococcus aureus (1.5×10^6 live organisms) was injected intramuscularly (1M) into each of the two rear thighs. Each thigh was considered as an individual data point (total of 4 data points for each treatment). These mice were randomly distributed into the control or treatment groups (n=2/group).
Treatment with the test compound (1) was initiated via the intraperitoneal route 2 hrs after thigh inoculation. Control animals were concurrently administered saline (mock treatment) or vancomycin in the same volume as those receiving compound (1). All animals were sacrificed after 48 hours by CO2 inhalation. Immediately following sacrifice, thigh tissue was collected from the animals, weighed, and homogenized in 5.0 mL of saline. Thigh muscle homogenate was then processed for microbiological assay to determine the number of MRSA cfu per gram of muscle tissue.

MRSA = settings: background statement; cited from earlier work
streptococci = assay: In vitro MIC, streptococci; assay type: cell-based, Streptococcus; settings: highest concentrations considered for MIC readings
Description: (§1) All test articles were dissolved in DMSO. Stock solutions were prepared at 40-fold the highest concentration in the test plate. The final concentration of DMSO in the test system was 2.5%.
(§2) The medium employed for the MIC assay was Mueller Hinton II Broth (MHB II-Becton Dickinson, #212322, Lot #9044411) for most of the organisms. MHB II was supplemented with 2% lysed horse blood (Cleveland Scientific Lot #22299-1) to accommodate the growth of Streptococcus pneumoniae, Streptococcus pyogenes and Streptococcus agalactiae. The media were prepared at 102.5% the normal weight to offset the dilution created by the addition of 5 μL drug solution to each well of the microdilution panels. […]
(§3) Plates were stacked 3 high, covered with a lid on the top plate, placed in plastic bags, and incubated at 35° C. for approximately 18 hours for most of the isolates. The Streptococcus plates were read after 20 hours of incubation. […] The MIC was read and recorded as the lowest concentration of drug that inhibited visible growth of the organism.

enterococci = assay: In vitro MIC, for enterococci; assay type: cell-based; settings: E. faecalis and E. faecium, vancomycin-susceptible and vancomycin-resistant strains
Description: as §1, §2, §3

[2] = tested on: methicillin resistant Staphylococcus aureus (MRSA); assay: In vitro antimicrobial evaluation, modified CLSI (formerly NCCLS) method; assay type: cell-based; settings: IC50 from percent growth versus test concentration; values only in FIG. 1
Description: The in vitro antimicrobial activity for the isolated glycosides is represented in FIG. 1. A modified version of CLSI (formerly NCCLS) method was used for the in vitro evaluation of test samples. Duplicate samples were transferred to 96-well microplates after diluting with 0.9% saline. The microbial cell suspensions were to give the desired target inocula after addition to the samples. Media and solvent controls were included in each assay. The IC50 was calculated by plotting percent growth versus test concentration.

Enterococcus faecalis = assay: In vitro MIC, broth microdilution (CLSI); assay type: cell-based
Description: as §1
(§4) The medium employed for the MIC assay was Mueller Hinton II Broth (MHB II-Becton Dickinson, #212322, Lot #9044411) for most of the organisms. MHB II was supplemented with 2% lysed horse blood (Cleveland Scientific Lot #22299-1) to accommodate the growth of Streptococcus pneumoniae, Streptococcus pyogenes and Streptococcus agalactiae. The media were prepared at 102.5% the normal weight to offset the dilution created by the addition of 5 μL drug solution to each well of the microdilution panels.
(§5) The MIC assay method followed the procedure described by the Clinical and Laboratory Standards Institute (see Clinical and Laboratory Standards Institute. Methods for Dilution Antimicrobial, Susceptibility Tests for Bacteria That Grow Aerobically; Approved Standard—Eighth Edition. CLSI document M07-A8 [ISBN 1-56238-689-1]. Clinical and Laboratory, Standards Institute, 940 West Valley Road, Suite 1400, Wayne, Pa. 19087-1898 USA, 2009) and employed automated liquid handlers to conduct serial dilutions and liquid transfers. Automated liquid handlers included the Multidrop 384 (Labsystems, Helsinki, Finland), Biomek 2000 and Multimek 96 (Beckman Coulter, Fullerton Calif.).
(§6) The wells of Columns 2-12 of standard 96-well microdilution plates (Falcon 3918) were filled with 150 μL of DMSO on the Multidrop 384. The drugs (300 μL) were dispensed into Column 1 of the appropriate row in these plates. These would become the mother plates from which the test plates (daughter plates) were prepared. The Biomek 2000 completed serial transfers through Column 11 in the mother plates. The wells of Column 12 contained no drug and were the organism growth control wells in the daughter plates. The daughter plates were loaded with 185 μL of the appropriate test media (described above) using the Multidrop 384. The daughter plates were prepared on the Multimek 96 instrument which transferred 5 μL of drug solution from each well of a mother plate to each corresponding well of each daughter plate in a single step. Therefore, the test agents were maintained in solution in 100% DMSO up until the point of being added to the final test medium.
(§7) Standardized inoculum of each organism was prepared per CLSI methods (See Clinical and Laboratory Standards Institute. Performance Standards for Antimicrobial Susceptibility Testing; Nineteenth Informational Supplement. CLSI document M100-S19 [ISBN 1-56238-690-5]. Clinical and Laboratory Standards Institute, 940 West Valley Road, Suite 1400, Wayne, Pa. 19087-1898 USA, 2009.). Suspensions were prepared in MHB to equal the turbidity of a 0.5 McFarland standard. The suspensions were diluted 1:9 in broth appropriate to the organism. The inoculum for each organism was dispensed into sterile reservoirs divided by width (Beckman Coulter), and the Biomek 2000 was used to inoculate the plates. Daughter plates were placed on the Biomek 2000 work surface reversed so that inoculation took place from low to high drug concentration. The Biomek 2000 delivered 10 μL of standardized inoculum into each well. This yielded a final cell concentration in the daughter plates of approximately 5×10^5 colony-forming-units/mL. Thus, the wells of the daughter plates ultimately contained 185 μL of broth, 5 μL of drug solution, and 10 μL of bacterial inoculum. The final concentration of DMSO in the assay plate was 2.5%.
as §3, with “incubation. The microplates were viewed from the bottom using a plate viewer.” for “incubation.”

[3] = tested on: Staphylococcus epidermidis; assay: In vitro MIC, broth microdilution (CLSI); assay type: cell-based
Description: as §1, §4, §5, §6, §7
as §3, with “incubation. The microplates were viewed from the bottom using a plate viewer.” for “incubation.”

Streptococcus agalactiae = assay: In vitro MIC, broth microdilution (CLSI); assay type: cell-based; settings: MHB II with 2% lysed horse blood
Description: as §1, §4, §5, §6, §7
as §3, with “incubation. The microplates were viewed from the bottom using a plate viewer.” for “incubation.”

Streptococcus pneumoniae = assay: In vitro MIC, broth microdilution (CLSI); assay type: cell-based; settings: MHB II with 2% lysed horse blood
Description: as §1, §4, §5, §6, §7
as §3, with “incubation. The microplates were viewed from the bottom using a plate viewer.” for “incubation.”

Streptococcus pyogenes = assay: In vitro MIC, broth microdilution (CLSI); assay type: cell-based; settings: MHB II with 2% lysed horse blood
Description: as §1, §4, §5, §6, §7
as §3, with “incubation. The microplates were viewed from the bottom using a plate viewer.” for “incubation.”

Staphylococcus aureus = assay: In vitro MIC, broth microdilution (CLSI); assay type: cell-based
Description: as §1, §4, §5, §6, §7
as §3, with “incubation. The microplates were viewed from the bottom using a plate viewer.” for “incubation.”

Enterococcus faecium = assay: In vitro MIC, broth microdilution (CLSI); assay type: cell-based
Description: as §1, §4, §5, §6, §7
as §3, with “incubation. The microplates were viewed from the bottom using a plate viewer.” for “incubation.”

CN[C@H](CC(C)C)C(=O)N[C@H]1C(=O)N[C@@H](CC(N)=O)C(=O)N[C@H]2C(=O)N[C@H]3C(=O)N[C@H](C(=O)N[C@H](C(=O)O)c4cc(O)cc(O)c4-c4cc3ccc4O)[C@H](O)c3ccc(c(Cl)c3)Oc3cc2cc(c3O[C@@H]2O[C@H](CO)[C@@H](O)[C@H](O)[C@H]2O[C@H]2C[C@](C)(N)[C@H](O)[C@H](C)O2)Oc2ccc(cc2Cl)[C@H]1O [Vancomycin, reference compound]
reduction compared to vehicle control [1]: 72%
number of MRSA isolated from muscle tissue ([1]; intraperitoneal, 48 hours, neutropenic mice): 2.2×10^7 g of tissue
success rate (MRSA): 35-57%

C[C@@H]1O[C@@H](Oc2c(-c3ccc(O)cc3)oc3cc(O)cc(O)c3c2=O)[C@H](OC(=O)/C=C\c2ccc(O)cc2)[C@H](OC(=O)/C=C\c2ccc(O)cc2)[C@H]1O [Compound 4, kaempferol 3-O-α-L-(2″,3″-di-Z-p-coumaroyl)rhamnoside]
activity against the streptococci (streptococci): Neither compound was active
activity against enterococci (enterococci): inhibited multiple strains
in vitro activity (rank among the four compounds) [2]: most potent in vitro activity
MIC (Enterococcus faecalis; MMX 101, CLSI QC, ATCC 29212): 8 µg/mL (≈ 11 µM)
MIC (Enterococcus faecalis; MMX 742, VSE, CHP): >8 µg/mL
MIC (Enterococcus faecalis; MMX 3199, VSE, UCLA): >8 µg/mL
MIC (Enterococcus faecalis; MMX 3821, VRE, Mt. Sinai): 8 µg/mL (≈ 11 µM)
MIC (Enterococcus faecalis; MMX 3896, VSE, Mt. Sinai): >8 µg/mL
MIC (Enterococcus faecalis; MMX 4131, VRE, CHP): 4 µg/mL (≈ 5.52 µM)
MIC (Enterococcus faecalis; MMX 4160, VRE, UCLA): 8 µg/mL (≈ 11 µM)
MIC ([3]; MMX 762, MRSE, CHP): >8 µg/mL
MIC ([3]; MMX 826, MRSE, UCLA): >8 µg/mL
MIC ([3]; MMX 835, MSSE, UCLA): 8 µg/mL (≈ 11 µM)
MIC ([3]; MMX 3703, MSSE, CHP): 8 µg/mL (≈ 11 µM)
MIC ([3]; MMX 3752, MRSE, Mt. Sinai): >8 µg/mL
MIC ([3]; MMX 3763, MSSE, Mt. Sinai): 8 µg/mL (≈ 11 µM)
MIC (Streptococcus agalactiae; MMX 3743, Mt. Sinai): >32 µg/mL
MIC (Streptococcus agalactiae; MMX 4093, UCLA): >32 µg/mL
MIC (Streptococcus agalactiae; MMX 4106, CHP): >32 µg/mL
MIC (Streptococcus pneumoniae; MMX 748, PRSP, CHP): >32 µg/mL
MIC (Streptococcus pneumoniae; MMX 866, PSSP, CHP): >32 µg/mL
MIC (Streptococcus pneumoniae; MMX 1195, CLSI QC, ATCC 49619): >32 µg/mL
MIC (Streptococcus pneumoniae; MMX 3130, PSSP, UCLA): >32 µg/mL
MIC (Streptococcus pneumoniae; MMX 3160, PRSP, UCLA): >32 µg/mL
MIC (Streptococcus pneumoniae; MMX 3937, PSSP, Mt. Sinai): >32 µg/mL
MIC (Streptococcus pneumoniae; MMX 3953, PRSP, Mt. Sinai): >32 µg/mL
MIC (Streptococcus pyogenes; MMX 718, CHP): >32 µg/mL
MIC (Streptococcus pyogenes; MMX 2572, UCLA): >32 µg/mL
MIC (Streptococcus pyogenes; MMX 3928, Mt. Sinai): >32 µg/mL
MIC (Staphylococcus aureus; MMX 100, CLSI QC, ATCC 29213): >8 µg/mL
MIC (Staphylococcus aureus; MMX 753, MSSA, CHP): >8 µg/mL
MIC (Staphylococcus aureus; MMX 758, MRSA, CHP): >8 µg/mL
MIC (Staphylococcus aureus; MMX 2055, MRSA, UCLA): >8 µg/mL
MIC (Staphylococcus aureus; MMX 2063, MSSA, UCLA): >8 µg/mL
MIC (Staphylococcus aureus; MMX 3856, MSSA, Mt. Sinai): >8 µg/mL
MIC (Staphylococcus aureus; MMX 3894, MRSA, Mt. Sinai): >8 µg/mL
MIC (Enterococcus faecium; MMX 0799, VSE, CHP): >8 µg/mL
MIC (Enterococcus faecium; MMX 0845, VSE, UCLA): 4 µg/mL (≈ 5.52 µM)
MIC (Enterococcus faecium; MMX 1238, VRE, Mt. Sinai): 4 µg/mL (≈ 5.52 µM)
MIC (Enterococcus faecium; MMX 1259, VSE, Mt. Sinai): >8 µg/mL
MIC (Enterococcus faecium; MMX 4024, VRE, CHP): >8 µg/mL
MIC (Enterococcus faecium; MMX 4048, VRE, UCLA): >8 µg/mL
